Tested on: Hsp70, Hsp90 and Hsp90 client proteins in Jurkat cells
Test: Western blot of Hsp70 and Hsp90 client proteins, Jurkat
Type: cell-based, human
Conditions: 24 h
Method: Treated cells were harvested and disrupted by freeze−thawing in RIPA buffer (50 mM Hepes, 10 mM EDTA, 150 mM NaCl, 1% NP-40, 0.5% sodium deoxycholate, 0.1% SDS, pH 7.4), supplemented with protease inhibitors cocktail (Sigma-Aldrich). Cell debris was removed by centrifugation at 4°C and the supernatant protein concentration was determined, according to the Bio-Rad Protein assay (Biorad Laboratories, CA, USA). Total proteins (30 µg) were separated by SDS-PAGE under denatured reducing conditions. Separated proteins were then transferred to nitrocellulose membranes and blocked for 3 h with a solution containing 3% BSA in 50 mM Tris, 200 mM NaCl, 0.1% Tween 20, before incubation at 4°C overnight with the different primary antibodies (diluted 1∶1000) against specific proteins. After washing, the membranes were incubated with an appropriate peroxidase-conjugate secondary antibodies at room temperature (1 h). Immunoreactive protein bands were detected by enhanced chemiluminescence reagent (ECL, Rockford, USA), according to the manufacturer’s instructions. Quantitative densitometry analyses were performed using a Gel Doc 2000 system (Biorad Laboratories, CA, USA).
Figure 7 Effect of geraniin on Hsp90 client protein levels. Equal amounts (30 µg) of whole-cell lysates were separated on SDS-PAGE and client proteins were visualized by western blot analysis using specific antibodies. Actin was used as loading control. […] The blots shown are representative of three different experiments with similar results.

O=C1O[C@H]2[C@@H]3OC(=O)c4cc(O)c(O)c(O)c4-c4c(cc(O)c(O)c4O)C(=O)OC[C@H]2O[C@@H](OC(=O)c2cc(O)c(O)c(O)c2)[C@@H]3OC(=O)c2cc(O)c(O)c3c2[C@@H]2C1=CC(=O)[C@](O)(O3)C2(O)O [Compound 54, geraniin] was tested, and the Hsp70 expression increase (1 µM geraniin) was 3.5±0.12 fold, the “level of Akt” value was “unaffected” and the “level of the client proteins c-Raf, pAkt and EGFR” value (IC50 and lower and higher concentrations) was “dose-dependent decrease”.

Reference: paper PMC3774728, “Identification of the Plant Compound Geraniin as a Novel Hsp90 Inhibitor” (PLoS ONE, 2013)
